One data set concerns Cloudman S91 tumors. As to the kind of experiment: Growth of Cloudman S91 melanoma tumors. The class given is in vivo.
A further data set concerns B16F10 tumors. As to the kind of experiment: Growth of B16F10 melanoma tumors. It counts as in vivo. On the procedure: [The procedure below names another cell line; the source lists this cell line under the same test.] (§1) 1% CMC/0.5% Tween-80 (CMCT) was prepared by adding 960 mL of distilled water to a 1000 mL Pyrex® glass bottle with a stir bar in the bottom, and was used as the oral vehicle. The water was warmed to 50-60° C. then 5 mL Tween® 80 (polyoxyethylenesorbitan monooleate, Sigma P2287, batch #054K0154) and 15.6 mL benzyl alcohol (Sigma 402834, Batch #00296PK) added. Carboxymethylcellulose (5 g, CMC, low viscosity, Sigma C5678, Batch #033K0008) was added slowly, over one hour. The solution was stirred until the CMC dissolved and the solution was clear. 30 mg/kg MEK162 (Binimetinib, 100% active) was prepared as a white, homogeneous suspension in CMCT. MEK162 was administered in 10 mL/kg and dosed at 30 mg/kg (3.0 mg/mL) by oral gavage. To prepare, dry test compound (90 mg) was weighed and 30 mL CMCT added. Dose suspension was sonicated until a fine suspension was achieved (˜15 min). Final dose suspension was stored at 4° C. during live phase and sonicated to resuspend prior to dose administration. Dose suspension was prepared every 4-5 days or as needed. 100 μg αPD-1 RMP1-14, Rat IgG2a isotype (BioXCell cat.no. BP0146, lot #5792×2/1015)−7.12 mg/mL stock concentration. RMP1-14 was prepared by dilution of 0.843 stock solution with 5.157 mL sterile saline for injection. The antibody was administered at 100 μg/animal (100 μL of a 1 mg/mL dose solution) by intraperitoneal injection.
(§2) Male BALB/c mice from Charles River (Wilmington, Mass.) were obtained at 6-8 weeks of age and housed in groups of 5. Following a two week acclimation period, a suspension of 1×10^5 cells in a volume of 100 μL saline was implanted subcutaneously on the right flank of the animal near the axillary region. Animals were then randomly assigned to treatment groups. Treatment was initiated on day 4 after CT26 tumor cell inoculation to allow for a sufficient treatment window. MEK162 was administered once daily (QD) for 14 consecutive days by oral gavage (PO) at 30 mg/kg and anti-PD1 antibody was administered twice weekly by intraperitoneal injection (IP) (Table 4).
(§3) The combination was evaluated as concomitant administration or sequential where MEK162 treatment was initiated at the time that tumor resistance from anti-PD1 treatment emerged. For the sequential treatment group, animals were enrolled in MEK162 treatment when tumors reached 350-400 mm^3 after anti-PD1 antibody therapy was initiated.
Animals were monitored for tumor growth and body weight 2-3 times per week based on outgrowth kinetics. Tumor diameter was measured with digital calipers, and the tumor volume in mm^3 was calculated by the formula: Volume=((width)^2×length)/2. TGI was calculated on day 15. Animals were removed from study if found moribund or if tumor volume exceeded 1400 mm^3. At that time, tumor tissue was harvested and frozen for later analysis of T-cell clonality by immune sequencing (Adaptive Biotech, San Diego, Calif.). […]
The mean values for tumor volume and body weight by study day for each experimental group were plotted including error bars for the standard error of the mean. % Tumor Growth Inhibition (% TGI): % TGI=100(1−Wt/Wc); Wt is the mean tumor volume of the treated group on day X; We is the mean tumor volume of controls on day X, where X is the last day that the control group is available in its entirety. […] Cures: Animals with no palpable tumor at the end of the study were scored as cures. […]

The subject of data set [1] is KRas mutant CT26 syngeneic tumors. As to the kind of experiment: Growth of KRas mutant CT26 murine colon syngeneic tumors. The settings on record: for Cures (day 61): animals with no palpable tumor at study end. The class given is in vivo. On the procedure:
as §1, §2, §3
Animals were monitored for tumor growth and body weight 2-3 times per week based on outgrowth kinetics. Tumor diameter was measured with digital calipers, and the tumor volume in mm^3 was calculated by the formula: Volume=((width)^2×length)/2. […] Animals were removed from study if found moribund or if tumor volume exceeded 1400 mm^3. At that time, tumor tissue was harvested and frozen for later analysis of T-cell clonality by immune sequencing (Adaptive Biotech, San Diego, Calif.). Food, water, temperature and humidity were according to Pharmacology Testing Facility performance standards (SOP's) which are in accordance with the 1996 Guide for the Care and Use of Laboratory Animals (NRC) and AAALAC-International.
The murine CT26 cell line (a.k.a. Colon 26 or Colon Tumor #26) was developed in 1975 by exposing BALB/c mice to N-nitroso-N-methylurethane-(NNMU) (Corbett et al., 1975). The undifferentiated colon carcinoma cell line with fibroblast morphology was isolated from BALB/c mice. Extensive genomics, immune phenotyping and therapeutic background are available on this cell line (information summarized from Bhadury et al., 2013, Castle et al., 2014). The cell line is reported to harbor a KRas G12D mutation and the in-house cell line was sequenced and found to match the reported mutation (BGI, Cambridge, Mass.). Literature reports expression of MHC class I but not II and a mutational load of 1688 non-synonymous point mutations; 154 are both in expressed genes and in peptides predicted to bind MHC. […]

A short description of data set [2]: Binimetinib steady state exposure quoted in figure legends. The settings on record: total.

`Cn1cnc2c(F)c(Nc3ccc(Br)cc3F)c(C(=O)NOCCO)cc21` [Binimetinib, 6-(4-bromo-2-fluorophenylamino)-7-fluoro-3-methyl-3H-benzoimidazole-5-carboxylic acid (2-hydroxyethoxy)-amide]: the “Cures (day 44)” value in the data set with Cloudman S91 tumors is on record as 0/10. In addition, the Deaths is on record as 0/10 with Cloudman S91 tumors, 2/10 with B16F10 tumors (B16F10 tumors) and 0/10 in data set [1] (BALB/c mice). Besides, in the data set with Cloudman S91 tumors (DBA/2 mice, binimetinib 30 mg/kg, anti-PD-1 100 μg), the “% TGI (day 8)” value was −17%. In addition, the “Max % BWL” value in the data set on Cloudman S91 tumors (vehicle 12.4) is 4.8%; with B16F10 tumors (mouse, in vivo), 0.8%; in data set [1] (BALB/c mice, maximum body weight loss), 0.6%. Also, the “Median Survival” value in the data set on Cloudman S91 tumors (vehicle 13) was 11; with B16F10 tumors (B16F10 tumors, vehicle 14) it was 19; in data set [1] (BALB/c mice, vehicle 18 days) it was 26 days. The results for the “Cures (day 61)” value (in the data set on B16F10 tumors (B16F10 tumors); in data set [1]; in data set [1] (listed as MEK162)) were 0/10, 0/10 and “no cures”, respectively. In the data set with B16F10 tumors (B16F10 tumors, C57BL/6 mice, binimetinib 30 mg/kg, anti-PD-1 100 μg), the “% TGI (day 13)” value was 59.0%. Also, the “% TGI (Day 13)” value in data set [1] (BALB/c mice, MEK162 30 mg/kg PO QD x14, anti-PD1 100 μg IP D 1, 4, 8, 11) is listed as 43%; in data set [1] (BALB/c mice, MEK162 30 mg/kg PO QD x14, anti-PD1 100 μg IP D 1, 4, 8, 11, 30 mg/kg), 43%. In addition, in data set [2], the “Trough (day 15)” value is 310 nM.

For the origin of these results see patent US20200368205A1, “METHODS AND COMBINATION THERAPY TO TREAT CANCER” (ARRAY BIOPHARMA INC., priority 2018, published 2020).
